Measurements from patent publication US20230295197A1, “STAT5 and STAT6 Degraders and Uses Thereof” (REGENTS OF THE UNIVERSITY OF MICHICAN, priority 2022, published 2023).
Like-named read-outs stand apart in the source and are kept apart here. *1 amine or outer side, *2 acyl side, *3 side chain or, on linkers, in order; H or OH if unused. Where a SMILES comes first, the peptide text is derived from it. [ ]: non-standard residue; d: D form. The star is where a group is joined. Benzothienyl2CO(5-CF2PO3H2) = O=C(c1cc2cc(C(F)(F)P(=O)(O)O)ccc2s1)*; βAla(N-(4-Br-phenyl)) = O=C(CCN(c1ccc(Br)cc1)[*:1])[*:2]; NHBn(4-(4-Me-thiazol-5-yl)) = Cc1ncsc1-c1ccc(CN*)cc1; Hyp = O=C(O)[C@@H]1C[C@@H](O)CN1; Tle = CC(C)(C)[C@H](N)C(=O)O; Ahx = NCCCCCC(=O)O

Target: T1, STAT6 (Homo sapiens, UniProt P42226)
T1 construct: endogenous in cells; host or cells: MOLM-16, KU-812, SKNO1, MB231, L1236
T1 sequence (P42226 1-847): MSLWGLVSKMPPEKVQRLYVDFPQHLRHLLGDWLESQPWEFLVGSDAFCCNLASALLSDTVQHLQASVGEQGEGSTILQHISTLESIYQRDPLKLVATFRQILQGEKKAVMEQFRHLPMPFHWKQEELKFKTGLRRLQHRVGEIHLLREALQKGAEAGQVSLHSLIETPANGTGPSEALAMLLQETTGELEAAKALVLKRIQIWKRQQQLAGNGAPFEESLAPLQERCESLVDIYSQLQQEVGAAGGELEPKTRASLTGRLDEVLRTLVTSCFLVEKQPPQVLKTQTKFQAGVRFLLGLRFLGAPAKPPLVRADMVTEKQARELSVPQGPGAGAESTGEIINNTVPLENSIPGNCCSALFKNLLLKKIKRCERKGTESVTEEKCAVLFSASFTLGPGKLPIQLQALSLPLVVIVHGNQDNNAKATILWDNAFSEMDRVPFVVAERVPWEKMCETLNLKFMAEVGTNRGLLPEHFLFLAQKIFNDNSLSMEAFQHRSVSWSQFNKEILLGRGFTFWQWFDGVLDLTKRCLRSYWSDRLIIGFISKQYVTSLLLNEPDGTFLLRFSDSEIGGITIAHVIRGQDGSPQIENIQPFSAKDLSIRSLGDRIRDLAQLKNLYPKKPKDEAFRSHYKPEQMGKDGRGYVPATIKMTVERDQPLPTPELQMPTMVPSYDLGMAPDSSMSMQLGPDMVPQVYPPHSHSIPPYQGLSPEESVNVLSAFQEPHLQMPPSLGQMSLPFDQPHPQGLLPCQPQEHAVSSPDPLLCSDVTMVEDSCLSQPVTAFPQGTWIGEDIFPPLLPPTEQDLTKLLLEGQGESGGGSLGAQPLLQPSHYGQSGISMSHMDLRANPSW
Assay: Immunoblotting (Western blot) analysis of STAT6 degradation efficiency of degraders in treated cells
Format: cell-based
How it was run: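 Cells (~1 million per point) treated with compounds at indicated concentrations and times, lysed in RIPA with protease/phosphatase inhibitors; 20-40 μg protein run on SDS-PAGE and blotted to PVDF. STAT6 or STAT5 rabbit mAbs with GAPDH loading control, IRDye secondaries; near-infrared fluorescence scan, band intensity quantified.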

[1] = L1236 cells, read-out: DC50 S6 L1236
[2] = MOLM-16 cells, class symbols, read-out: DC50 S6 MOLM-16

Row | Structure (SMILES) | DC50 [1] [µM] | DC50 [2] [µM] | DC50 (MOLM-16 cells, numeric bound, read-out: DC50 S6 MOLM-16) [µM] | DC50 (read-out: DC50 S6 MB231, MB231 cells) [µM]
1 | Cc1ncsc1-c1ccc([C@H](C)NC(=O)[C@@H]2C[C@@H](O)CN2C(=O)[C@@H](NC(=O)CCCCCCCCNC(=O)CO[C@H]2C[C@@H](C(=O)N3CCO[C@H](c4ccccc4)C3)N(C(=O)[C@@H](NC(=O)c3cc4cc(C(F)(F)P(=O)(O)O)ccc4s3)C(C)(C)C)C2)C(C)(C)C)cc1 [Compound 432, (difluoro(2-(((S)-1-((2S,4S)-4-(2-((9-(((S)-1-((2S,4R)-4-hydroxy-2-(((S)-1-(4-(4-methylthiazol-5-yl)phenyl)ethyl)carbamoyl)pyrrolidin-1-yl)-3,3-dimethyl-1-oxobutan-2-yl)amino)-9-oxononyl)amino)-2-oxoethoxy)-2-((R)-2-phenylmorpholine-4-carbonyl)pyrrolidin-1-yl)-3,3-dimethyl-1-oxobutan-2-yl)carbamoyl)benzo[b]thiophen-5-yl)methyl)phosphonic acid] | > 10 | > 10 | – | –
2 | CC(C)(C)[C@H](NC(=O)c1cc2cc(C(F)(F)P(=O)(O)O)ccc2s1)C(=O)N1C[C@@H](OCCN2CCC(Nc3cccc4c3CN(C3CCC(=O)NC3=O)C4=O)CC2)C[C@H]1C(=O)N1CCO[C@H](c2ccccc2)C1 (stereo partly drawn) [Compound 605, ((2-(((2S)-1-((2S,4S)-4-(2-(4-((2-(2,6-dioxopiperidin-3-yl)-1-oxoisoindolin-4-yl)amino)piperidin-1-yl)ethoxy)-2-((R)-2-phenylmorpholine-4-carbonyl)pyrrolidin-1-yl)-3,3-dimethyl-1-oxobutan-2-yl)carbamoyl)benzo[b]thiophen-5-yl)difluoromethyl)phosphonic acid] | – | – | > 0.3 | –
3 | Cc1ncsc1-c1ccc(CNC(=O)[C@@H]2C[C@@H](O)CN2C(=O)[C@@H](NC(=O)CCCCCNC(=O)CCN(C(=O)[C@@H]2CCCN2C(=O)[C@@H](NC(=O)c2cc3cc(C(F)(F)P(=O)(O)O)ccc3s2)C(C)(C)C)c2ccc(Br)cc2)C(C)(C)C)cc1 [Compound 400] ({Benzothienyl2CO(5-CF2PO3H2)}-[Tle]P[βAla(N-(4-Br-phenyl))][Ahx][Tle][Hyp]-{NHBn(4-(4-Me-thiazol-5-yl))}) | – | – | – | > 10
4 | Cc1ncsc1-c1ccc([C@H](C)NC(=O)[C@@H]2C[C@@H](O)CN2C(=O)[C@@H](NC(=O)CCCCCNC(=O)CC(=O)N2CCN(C(=O)[C@@H](NC(=O)c3cc4cc(C(F)(F)P(=O)(O)O)ccc4s3)C(C)(C)C)[C@H](C(=O)N3CCO[C@H](c4ccccc4)C3)C2)C(C)(C)C)cc1 [Compound 447, (difluoro(2-(((S)-1-((S)-4-(3-((6-(((S)-1-((2S,4R)-4-hydroxy-2-(((S)-1-(4-(4-methylthiazol-5-yl)phenyl)ethyl)carbamoyl)pyrrolidin-1-yl)-3,3-dimethyl-1-oxobutan-2-yl)amino)-6-oxohexyl)amino)-3-oxopropanoyl)-2-((R)-2-phenylmorpholine-4-carbonyl)piperazin-1-yl)-3,3-dimethyl-1-oxobutan-2-yl)carbamoyl)benzo[b]thiophen-5-yl)methyl)phosphonic acid] | > 10 | > 10 | – | –
5 | CC(C)(C)[C@H](NC(=O)c1cc2cc(C(F)(F)P(=O)(O)O)ccc2s1)C(=O)N1Cc2cc(OCC(=O)NCCCC#Cc3ccc4c(c3)C(=O)N(C3CCC(=O)NC3=O)C4=O)ccc2C[C@H]1C(=O)N1CCO[C@H](c2ccccc2)C1 (stereo partly drawn) [Compound 540, ((2-(((2S)-1-((3S)-7-(2-((5-(2-(2,6-dioxopiperidin-3-yl)-1,3-dioxoisoindolin-5-yl)pent-4-yn-1-yl)amino)-2-oxoethoxy)-3-((R)-2-phenylmorpholine-4-carbonyl)-3,4-dihydroisoquinolin-2(1H)-yl)-3,3-dimethyl-1-oxobutan-2-yl)carbamoyl)benzo[b]thiophen-5-yl)difluoromethyl)phosphonic acid] | – | > 10 | – | –
